± gives the uncertainty stated by the source.
Tests used:
[1] = tested on: KeratinoSens (HaCaT ARE-luciferase) cells; experiment: cytotoxicity AC50 (CellTiter-Fluor viability); higher = less cytotoxic; settings: exposure time: 24 h
THP-1 = experiment: efficacy of IL-8 induction relative to DMSO (% activity); higher = stronger induction; settings: exposure time: 18 h
[2] = tested on: KeratinoSens (HaCaT ARE-luciferase) cells; experiment: efficacy of ARE luciferase induction relative to DMSO (% activity over DMSO); higher = stronger induction; settings: exposure time: 24 h
[3] = tested on: lysine peptide Ac-RFAAKAA-COOH; experiment: efficacy of lysine peptide change (negative = depletion) (% activity); higher = less depletion; settings: incubation time: 24 h
[4] = tested on: cysteine peptide Ac-RFAACAA-COOH; experiment: efficacy of cysteine peptide change (negative = depletion) (% activity); higher = less depletion; settings: incubation time: 24 h

Row | efficacy of lysine peptide change [3] | efficacy of cysteine peptide change [4] | Compound | cytotoxicity AC50 [1] [µM] | efficacy of IL-8 induction (THP-1) | efficacy of ARE luciferase induction [2]
1 | -4.75 ± 8.2 | -44.3 ± 3.7 | C=CCOC(=O)/C=C\C(=O)OCC=C [Diprop-2-en-1-yl (2Z)-but-2-enedioate] | – | 3.9 ± 6.8 | 23.7 ± 6.3
2 | 1.96 ± 25 | -8.26 ± 7.2 | Clc1ccc(C(Cn2ccnc2)OCc2ccc(Sc3ccccc3)cc2)c(Cl)c1 (stereo not drawn) [Fenticonazole nitrate] | – | 3.64 ± 6.3 | 51.9 ± 25
3 | 50.2 ± 3.4 | -1.8 ± 3.1 | O=c1cc(-c2ccccc2)oc2ccccc12 [Flavone] | – | 3.56 ± 6.2 | 27 ± 10
4 | 109 ± 17 | -45.7 ± 16 | CCCCCCCCCCCCN(CCO)CCO [Lauryldiethanolamine] | – | 30.1 ± 14 | -12.7 ± 56
5 | 9.47 ± 3 | 2.33 ± 4 | COc1ccc(C(=O)c2ccc(C)cc2)c(O)c1 [Mexenone] | – | 10.8 ± 9.8 | 28 ± 31
6 | 0 | -37 ± 6.3 | CO[C@@]12[C@H](COC(N)=O)C3=C(C(=O)C(C)=C(N)C3=O)N1C[C@@H]1N[C@@H]12 [Mitomycin C] | – | 12.9 ± 11 | 17.2 ± 24
7 | 54.8 ± 7.6 | -2.83 ± 4.9 | CC(C)NC(=O)c1ccc(C=O)cc1 [N-isopropyl-4-formylbenzamide] | – | 29.6 ± 51 | 32.9 ± 39
8 | 64.1 ± 7.7 | -4.4 ± 7.6 | CCCCCOc1ccccc1/C(=C\SC)n1ccnc1 [Neticonazole] | – | 23.6 ± 1.8 | 21.4 ± 9.5
9 | 93.9 ± 56 | 40.2 ± 6.4 | O=C(O)c1cccnc1Nc1cccc(C(F)(F)F)c1 [Niflumic acid] | – | 0 | 59.7 ± 37
10 | -8.37 ± 1.2 | -39.2 ± 4.3 | NC(=O)N/N=C/c1ccc([N+](=O)[O-])o1 [Nitrofurazone] | – | 0 | 37 ± 47
11 | 3.95 ± 6.8 | -5.45 ± 4.8 | CCCCCCCC/C=C\CCCCCCCC(=O)N(C)CC(=O)O [Oleyl sarcosine] | – | 0 | -5.73 ± 8.1
12 | -8.69 ± 25 | 13.2 ± 15 | COC(=O)Nc1nc2cc([S+]([O-])c3ccccc3)ccc2[nH]1 (stereo not drawn) [Oxfendazole] | – | 2.33 ± 4 | 0
13 | 34.2 ± 19 | 0.29 ± 11 | CC(=O)Oc1ccc(C2(c3ccc(OC(C)=O)cc3)C(=O)Nc3ccccc32)cc1 [Oxyphenisatin acetate] | – | 0 | 49 ± 42
14 | 56.7 ± 8.3 | -2.83 ± 4.9 | CC(C(=O)O)c1ccc(/C=C2\CCCCC2=O)cc1 (stereo not drawn) [Pelubiprofen] | – | 0 | -2.46 ± 29
15 | 10.7 ± 13 | 9.93 ± 10 | O=C(Oc1ccccc1)c1ccccc1O [Phenyl salicylate] | – | 0 | 8.07 ± 11
16 | -7.88 ± 7 | -30.8 ± 9.8 | Cc1cccc(N(C)C(=S)Oc2ccc3c(c2)C2CCC3C2)c1 (stereo not drawn) [Tolciclate] | – | 22.4 ± 2.8 | 46.5 ± 33
17 | -6.29 ± 6.4 | 0 | CCCCCCCCN [n-Octylamine] | – | 0 | 47.1 ± 74
18 | 58.9 ± 23 | -19.7 ± 9.4 | CC(C)(C)OC(=O)c1ccc(O)cc1 [tert-Butyl 4-hydroxybenzoate] | – | 0 | 28.1 ± 9.8

Further lines, the molecule ahead of its results:

Row | Compound | efficacy of lysine peptide change [3] | efficacy of cysteine peptide change [4] | cytotoxicity AC50 [1] [µM] | efficacy of IL-8 induction (THP-1) | efficacy of ARE luciferase induction [2]
19 | CC[C@H]1CC[C@H](NCc2cc3c(cc2OC)[C@H]2C[C@H]2C(=O)N3C)[C@H](c2ccccc2)N1 | – | – | 26.4 ± 4.7 | 18.9 ± 3.4 | 82.8 ± 33
20 | O=[N+]([O-])c1cc(Cl)c(Cl)c(Cl)c1Cl [2,3,4,5-Tetrachloronitrobenzene] | -3.6 ± 17 | -5.15 ± 8.9 | 44.9 ± 5.2 | 49.5 ± 10 | 42.4 ± 36
21 | CCOC(=O)CCC(=O)OCC [Diethyl butanedioate] | 2.82 ± 10 | 47 ± 2.6 | – | 3.24 ± 5.6 | 24.9 ± 23
22 | COP(=O)(O)OP(=O)(O)OC [Dimethyl dihydrogen diphosphate] | 4.84 ± 8.4 | 0 | – | 0 | 22.1 ± 30
23 | COC(=O)CCCCCCCC(=O)OC [Dimethyl nonanedioate] | 21.8 ± 24 | 59.7 ± 11 | – | 0 | 10.6 ± 13
24 | COP(=S)(OC)Oc1ccc(SC)c(C)c1 [Fenthion] | 2.04 ± 28 | 0.74 ± 16 | – | -2.61 ± 4.5 | 17.4 ± 5.5
25 | CCC(C)(CC)c1cc(NC(=O)c2c(OC)cccc2OC)on1 [Isoxaben] | 47.2 ± 16 | 21.1 ± 6.2 | – | 2.21 ± 15 | 20.2 ± 5.5
26 | CC1=C(C(=O)Nc2ccccc2)S(=O)(=O)CCO1 [Oxycarboxin] | – | – | 32.9 ± 2.2 | 0 | 52.3 ± 47
27 | CCOP(=S)(OCC)Oc1cnc2ccccc2n1 [Quinalphos] | 10.6 ± 9.3 | 97.5 ± 350 | – | 7.62 ± 6.8 | 37.5 ± 24
28 | CCNc1nc(NC(C)(C)C)nc(SC)n1 [Terbutryn] | 139 ± 22 | 21.4 ± 20 | – | 4.42 ± 7.7 | 8.44 ± 7.8
29 | CCOC(=O)NC(=S)Nc1ccccc1NC(=S)NC(=O)OCC [Thiophanate] | 34.5 ± 10 | -5.09 ± 4.7 | – | 3.6 ± 6.2 | 98.8 ± 100
30 | Cc1ccc(N=C=O)cc1N=C=O [Toluene-2,4-diisocyanate] | -3.03 ± 21 | -19.2 ± 5 | – | 33 ± 3.5 | 82.9 ± 38
31 | NCCc1ccc(O)cc1 [Tyramine] | -1.41 ± 14 | 10.7 ± 18 | – | 0 | 17 ± 9

From the supplement of paper PMC10933113
